{
  "source": "patent US12296027B2",
  "about": "“Molecular renal probes for detecting acute kidney injury” (Nanyang Technological University, priority 2019, dated 2025)",
  "key": {"[1]": {"assay": "Photophysical properties (absorption, fluorescence, quantum yield)", "assay_type": "physicochemical", "procedure": "Optical measurement. […] The ADR solution (30 μM) was incubated with KO2 (60 μM) and NAG (40 mU), respectively, in PBS (10 mM, pH 7.4) at 37° C. […] Fluorescence images were acquired using the IVIS spectrum imaging system with excitation at 675±10 nm (640±10 nm for MRPD) and emission at 720±10 nm (760±10 nm for MRPD) and the acquisition time of 0.1 s. Chemiluminescence images were acquired under bioluminescence mode with open filter and the acquisition time of 1 s. The sensing capability of MRPs was analysed through HPLC. UV-Vis and fluorescence spectra of the uncaged fluorophores solution (30 μM) in PBS (10 mM, pH 7.4) were recorded on UV-Vis and fluorescence spectrophotometers.\nMeasurement of fluorescence quantum yields. ICG was used as a standard with a known fluorescence quantum yield (ϕ) value of 13% in DMSO (R. C. Benson, H. A. Kues, J. Chem. Eng. Data 1977, 22, 379-383). Fluorescence quantum yields were calculated using the following equation: ϕs/ϕf=(As/Af)×(Abss/Absf)×(ηs^2/ηf^2), Where ϕs and ϕf are the fluorescence quantum yields of the standard and the samples, respectively; As and Af are the emission areas of the standard and the samples, respectively; Abss and Absf are the absorbance of the standard and the samples at the wavelength of excitation; ηs and ηf are the refractive indices of the standard and the samples, respectively."}, "[2]": {"assay": "In vivo biodistribution by NIRF imaging", "parameters": "species or system mice", "settings": "i.v., 8 μmol kg^−1 (MRPD 32 μmol kg^−1)", "procedure": "All animal studies were performed in compliance with the guidelines set by the Institutional Animal Care and Use Committee (IACUC), Sing Health. Female nude mice (Tac:Cr:(NCr)-Fox1nu, 8 weeks old) were obtained from InVivos Pte Ltd (Singapore). Aged female nude mice (25 weeks old) were obtained by feeding after receive at 8 weeks old. Female Balb/c mice (10 weeks old), male type 2 diabetic BKS-db mice (BKS-Lepr^em2Cd479 with a C57BLKS/J background, 12 weeks old) and male nondiabetic C57BLKS/J wild-type mice (12 weeks) were obtained from Nanjing Biomedical Research Institute of Nanjing University (Nanjing, China). NCr nude mice were i.v. injected with 0.2 ml saline (control), the uncaged fluorophores (CMe, CP2, CP5 and CCD, 8 μmol kg^−1 body weight) or MRPD (32 μmol kg^−1 body weight), and imaged using the IVIS spectrum imaging system at 30 and 60 min post-injection. The abdominal cavity and resected organs from mice were imaged after sacrifice at t=60 min post-injection. Fluorescence images were acquired using the IVIS spectrum imaging system with excitation at 675±10 nm (640±10 nm for MRPD) and emission at 720±10 nm (760±10 nm for MRPD). Fluorescence intensities for each organ were analysed by the region of interest (ROI) analysis using the Living Image 4.3 Software (3 mice were analysed for each sample)."}, "[3]": {"assay": "Renal clearance efficiency studies (urine HPLC)", "assay_type": "in vivo", "settings": "healthy mice, i.v.", "procedure": "NCr nude mice were i.v. injected with the uncaged fluorophores (CMe, CP2, CP5 and CCD, 8 μmol kg^−1 body weight), MRPs1-3 (8 μmol kg^−1 body weight) or MRPD (32 μmol kg^−1 body weight) and placed in metabolic cages (3 mice were analysed for each sample). […] Urine was collected at 1, 3, 6, 9 and 24 h post-injection, centrifuged at 4500 r.p.m. for 8 min and filtered by 0.22 μm syringe filter. Excretion of the uncaged fluorophores and MRPs in the urine was quantified using HPLC. Mice were sacrificed to image resected organs after 24 h urine collection. Fluorescence intensities for resected organs were analysed by the ROI analysis using the Living Image 4.3 Software. Major organs were collected, homogenised in PBS buffer (10 mM, pH 7.4) and centrifuged at 4500 r.p.m for 15 min to remove insoluble components. Fluorescence intensities of the final supernatants were measured on fluorescence spectrophotometer.\nMice were i.v. injected with ADR (30 μmol kg^−1 body weight) and placed in metabolic cages. Urine was collected at 1, 3, 6, 9 and 24 h post-injection, diluted in PBS and centrifuged at 4500 r.p.m. for 10 min and filtered by 0.22 μm syringe filter. ADR in the urine was quantified using HPLC. The absorption and fluorescence spectra were measured for the urine samples. […]"}, "[4]": {"assay": "Body weight of drug-treated mice", "assay_type": "in vivo", "settings": "BALB/c mice, single i.v. dose", "procedure": "Mice were randomly selected and treated with cisplatin (5 mg kg^−1, 10 mg kg^−1 or 20 mg kg^−1 body weight, i.p. injection), gentamicin (100 mg kg^−1 day^−1, i.p. injection) or diatrizoate (1000 mg kg^−1 body weight, i.v injection, water deprivation for 24 h before treatment). The control groups were treated with saline (0.2 ml) or NAC (400 mg kg^−1 body weight, i.v injection) 30 min prior to cisplatin administration^50. Body weights of all the mice were recorded during treatment. After drug administration, the weight of mice and signs of discomfort were monitored on a daily basis during the entire experiments (FIG. 46). Imaging, blood and urine sampling were conducted at different timepoints post-treatment of drug. At the end, mice were euthanized and major organs were placed into 4% paraformaldehyde for histological examination.\nFor the doxorubicin model, dose-finding studies were first carried out to define an optimal dose of 10 mg kg^−1 body weight of doxorubicin. […] The corresponding MRP (40 mg kg^−1) was systematically injected through the tail vein at t=0, 2 d, 5 d, and 8 d post-treatment of DOX, and fluorescence images were acquired. […] Fluorescence images of living mice and urine samples were acquired for 0.1 s with excitation at 675±20 nm, and emission at 720±20 nm. Fluorescence images were analysed by ROI analysis using the Living Image 4.0 Software."}, "[5]": {"settings": "in DMSO; cited from earlier work"}, "[6]": {"settings": "in 3 h, Patients; cited from earlier work"}},
  "note": "Where “and” joins values, the source holds several entries; their conditions need not be identical. Equal entries are not always repeated.",
  "data": [
    {"smiles": "C[N+]1=C(/C=C/C2=C3Oc4cc(O)ccc4C=C3CCC2)C(C)(C)c2ccccc21", "note": "[CMe]", "values": [
      {"measurement": "Stokes shift", "setting": "[1]", "value": 25, "unit": "nm"},
      {"measurement": "λab, wavelength of maximum absorbance", "setting": "[1]; PBS pH 7.4", "value": "690 nm and 697 nm"},
      {"measurement": "λem, wavelength of maximum emission", "setting": "[1]; PBS pH 7.4", "value": "720 nm and 722 nm"},
      {"measurement": "biodistribution at 1 h post-injection (ex vivo NIRF)", "setting": "[2]", "value": "mainly accumulated in the liver, gallbladder, and intestine"},
      {"measurement": "renal clearance efficiency at 24 h post-injection", "setting": "[3]", "value": "nearly undetectable in urine"},
      {"measurement": "Renal clearance efficiency (%)", "setting": "[3]; Table 5", "value": "<5", "unit": "%"}
    ]},
    {"smiles": "COc1cccc2c1C(=O)c1c(O)c3c(c(O)c1C2=O)C[C@@](O)(C(=O)CO)C[C@@H]3O[C@H]1C[C@H](N)[C@H](O)[C@H](C)O1", "note": "[DOX, doxorubicin]", "values": [
      {"measurement": "mean body weight gain by day 16", "setting": "[4]", "value": 3, "unit": "%"},
      {"measurement": "mean body weight loss by day 8", "setting": "[4]", "value": "approximately 6%"}
    ]},
    {"smiles": "CC1(C)C(/C=C/C=C/C=C/C=C2\\N(CCCCS(=O)(=O)[O-])c3ccc4ccccc4c3C2(C)C)=[N+](CCCCS(=O)(=O)[O-])c2ccc3ccccc3c21.[Na+]", "note": "[ICG]", "values": [
      {"measurement": "fluorescence quantum yield (ϕ) of standard", "setting": "[5]", "value": 13, "unit": "%"}
    ]},
    {"smiles": "O=C([O-])CN=C([O-])CN=C([O-])CN=C([O-])C[S-].[O-2].[Tc+4]", "note": "[^99mTc-MAG3]", "values": [
      {"measurement": "Renal clearance efficiency", "setting": "[6]", "value": 90, "unit": "% ID in 3 h"}
    ]}
  ]
}
